Laboratory results published in patent US7910609B2, “Inhibitors of integrin alpha2beta1 with modified urea moiety” (The Trustees Of The University Of Pennsylvania, priority 2005, dated 2011).

Assays:
[1] = target: T1, integrin α2β1 (Homo sapiens, UniProt P05556+P17301); experiment: Platelet adhesion assay: washed human platelet binding to soluble type I collagen; assay type: cell-based
T1 construct: Human blood was obtained by venipuncture from healthy volunteers; endogenous in cells; host or cells: washed human platelets from blood of healthy volunteers
Protocol: The series of compounds was tested for the ability to block washed human platelet binding to soluble type I collagen. […] Further understanding was sought with respect to the SAR of the urea functionality and its spatial positioning.
(§1) Preparation of Washed Platelets. All Studies were Conducted Following IRB-approved protocols at the University of Pennsylvania. Human blood was obtained by venipuncture from healthy volunteers using 0.3% sodium citrate as anticoagulant, then acid-citrate-dextrose was added (1 mL per 10 mL blood). Platelet-rich plasma (PRP) was then prepared by centrifugation at 200 g for 20 min. Platelets were obtained from the PRP by addition of prostacyclin (PG I2: 0.1 μg/ml) followed by centrifugation at 1000 g for 10 min. The pelleted platelets were resuspended in HEPES/Tyrode's buffer (20 mM HEPES, 129 mM NaCl, 0.34 mM Na2HPO4, 2.9 mM KCl, 12 mM NaHCO3, 5 mM glucose, 1 mm MgCl2, pH 7.3) and repelleted by repeated PG I2 addition and centrifugation.
(§2) Platelet Adhesion Assays. Immulon 2 flat bottom 96-well Plates (Dynatech Labs, Burlington, Mass.) were coated with soluble type I collagen, fibronectin (FN) or osteopontin (OPN) (5 μg/ml) in PBS for 48 hrs at 4° C. The plates were then washed and blocked with BSA (5 mg/ml in PBS) for at least 24 hr. Adhesion assays using type I collagen contained test compound and 1.6×10^7 Platelets in GFP buffer in a final volume of 100 μl. The plates were then incubated for 30 min at 37° C. and washed with TBS (10 mM Tris, 150 mM NaCl, pH 7.4). Quantification of adherent platelets was performed as previously described.^[27] Briefly, the platelets were stained for acid phosphatase by adding 0.1 M sodium citrate (pH 5.4) with 0.1% Triton X-100 containing 5 mM p-nitrophenyl phosphate substrate (100 μl/well) and incubated for 40 min at 37° C. Color was then developed by the addition of 50 μl 2.0 M NaOH per well and the plates were read at 405 nm in a Molecular Devices Spectra Max M5 microplate reader. Adhesion to FN- and OPN-coated plates were performed similarly using a modified GFP buffer for resuspension (4 mM HEPES, 147 mM NaCl, 2.7 mM KCl, 0.35% BSA, 0.1% glucose, 1 mM MgCl2, 1 mM MnCl2, pH 7.4). Platelets were stimulated in OPN binding by addition of 20 μM ADP during incubation.^[28] The platelets in αvβ3-mediated binding to FN were pre-treated with 2 μg per mL ReoPro (abciximab, chimeric 7E3 Fab; Centocor, Malvern Pa.) for 20 minutes at RT.

[2] = target: T2, integrin α5β1 (Homo sapiens, UniProt P05556+P08648); experiment: Platelet adhesion to fibronectin (in the presence of abciximab); assay type: cell-based; settings: Table 2 selectivity, ligand Fibronectin
T2 construct: Platelets express several integrins, including αIIbβ3, αvβ3, α2β1, α5β1, and α6β1; endogenous in cells; host or cells: washed human platelets from blood of healthy volunteers
Protocol: as §1
as §2, with “The platelets in αvβ3-mediated binding to FN were pre-treated with 2 μg per mL ReoPro (abciximab, chimeric 7E3 Fab; Centocor, Malvern Pa.) for 20 minutes at RT.” left out

[3] = Table 1, washed human platelets, soluble type I collagen, 30 min at 37° C.
[4] = Compounds Produced in Accordance with Scheme 2

T1 sequence (P17301 30-1181): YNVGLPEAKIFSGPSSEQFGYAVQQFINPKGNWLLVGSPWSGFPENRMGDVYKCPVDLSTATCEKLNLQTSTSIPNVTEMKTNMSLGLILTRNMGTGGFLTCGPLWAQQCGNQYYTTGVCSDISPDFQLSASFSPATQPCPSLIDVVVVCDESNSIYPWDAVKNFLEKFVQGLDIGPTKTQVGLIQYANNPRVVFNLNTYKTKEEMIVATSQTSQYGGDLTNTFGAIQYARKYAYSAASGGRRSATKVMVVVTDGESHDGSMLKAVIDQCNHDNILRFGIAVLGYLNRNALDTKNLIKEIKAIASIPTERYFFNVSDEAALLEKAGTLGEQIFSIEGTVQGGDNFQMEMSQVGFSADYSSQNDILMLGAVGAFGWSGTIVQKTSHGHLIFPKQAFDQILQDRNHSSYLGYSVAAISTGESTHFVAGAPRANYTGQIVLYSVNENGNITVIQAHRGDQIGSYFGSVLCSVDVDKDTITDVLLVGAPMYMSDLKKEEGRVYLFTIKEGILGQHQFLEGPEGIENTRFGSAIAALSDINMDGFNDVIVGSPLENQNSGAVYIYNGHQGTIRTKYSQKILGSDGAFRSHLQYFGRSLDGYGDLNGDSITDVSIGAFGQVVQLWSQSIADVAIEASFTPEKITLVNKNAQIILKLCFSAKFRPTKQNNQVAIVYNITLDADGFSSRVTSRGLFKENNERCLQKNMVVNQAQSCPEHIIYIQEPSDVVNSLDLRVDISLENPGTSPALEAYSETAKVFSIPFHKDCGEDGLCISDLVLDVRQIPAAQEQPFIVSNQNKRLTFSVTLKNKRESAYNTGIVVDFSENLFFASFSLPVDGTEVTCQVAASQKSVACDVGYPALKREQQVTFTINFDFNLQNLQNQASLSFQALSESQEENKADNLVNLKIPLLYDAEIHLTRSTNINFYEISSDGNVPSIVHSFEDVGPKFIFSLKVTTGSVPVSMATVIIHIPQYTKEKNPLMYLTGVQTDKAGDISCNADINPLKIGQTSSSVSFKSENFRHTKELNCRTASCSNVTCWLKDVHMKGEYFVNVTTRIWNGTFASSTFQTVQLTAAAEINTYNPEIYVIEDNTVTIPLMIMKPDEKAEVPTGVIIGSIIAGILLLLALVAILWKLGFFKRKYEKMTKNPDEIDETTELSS
T1 sequence (P05556 21-798): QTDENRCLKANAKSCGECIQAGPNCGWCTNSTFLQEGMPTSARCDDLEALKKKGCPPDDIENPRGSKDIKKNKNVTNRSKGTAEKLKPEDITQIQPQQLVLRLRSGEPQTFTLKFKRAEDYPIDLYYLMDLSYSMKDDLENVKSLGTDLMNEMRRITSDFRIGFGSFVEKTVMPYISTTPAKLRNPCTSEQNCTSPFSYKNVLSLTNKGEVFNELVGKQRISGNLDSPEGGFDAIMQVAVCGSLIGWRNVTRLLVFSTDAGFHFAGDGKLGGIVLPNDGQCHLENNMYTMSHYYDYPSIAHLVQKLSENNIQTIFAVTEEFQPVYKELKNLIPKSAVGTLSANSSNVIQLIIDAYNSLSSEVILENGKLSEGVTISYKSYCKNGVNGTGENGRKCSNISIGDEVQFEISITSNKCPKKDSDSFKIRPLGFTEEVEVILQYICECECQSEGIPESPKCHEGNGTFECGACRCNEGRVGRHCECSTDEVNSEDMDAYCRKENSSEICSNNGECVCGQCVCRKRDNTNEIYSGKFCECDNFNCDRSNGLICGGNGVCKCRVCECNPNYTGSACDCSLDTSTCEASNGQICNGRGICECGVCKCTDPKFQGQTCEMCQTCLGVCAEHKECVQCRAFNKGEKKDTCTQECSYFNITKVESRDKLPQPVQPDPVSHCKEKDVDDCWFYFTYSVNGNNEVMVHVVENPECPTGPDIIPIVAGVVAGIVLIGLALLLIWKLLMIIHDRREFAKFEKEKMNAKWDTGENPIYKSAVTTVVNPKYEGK
T2 sequence (P08648 42-894 limits assumed): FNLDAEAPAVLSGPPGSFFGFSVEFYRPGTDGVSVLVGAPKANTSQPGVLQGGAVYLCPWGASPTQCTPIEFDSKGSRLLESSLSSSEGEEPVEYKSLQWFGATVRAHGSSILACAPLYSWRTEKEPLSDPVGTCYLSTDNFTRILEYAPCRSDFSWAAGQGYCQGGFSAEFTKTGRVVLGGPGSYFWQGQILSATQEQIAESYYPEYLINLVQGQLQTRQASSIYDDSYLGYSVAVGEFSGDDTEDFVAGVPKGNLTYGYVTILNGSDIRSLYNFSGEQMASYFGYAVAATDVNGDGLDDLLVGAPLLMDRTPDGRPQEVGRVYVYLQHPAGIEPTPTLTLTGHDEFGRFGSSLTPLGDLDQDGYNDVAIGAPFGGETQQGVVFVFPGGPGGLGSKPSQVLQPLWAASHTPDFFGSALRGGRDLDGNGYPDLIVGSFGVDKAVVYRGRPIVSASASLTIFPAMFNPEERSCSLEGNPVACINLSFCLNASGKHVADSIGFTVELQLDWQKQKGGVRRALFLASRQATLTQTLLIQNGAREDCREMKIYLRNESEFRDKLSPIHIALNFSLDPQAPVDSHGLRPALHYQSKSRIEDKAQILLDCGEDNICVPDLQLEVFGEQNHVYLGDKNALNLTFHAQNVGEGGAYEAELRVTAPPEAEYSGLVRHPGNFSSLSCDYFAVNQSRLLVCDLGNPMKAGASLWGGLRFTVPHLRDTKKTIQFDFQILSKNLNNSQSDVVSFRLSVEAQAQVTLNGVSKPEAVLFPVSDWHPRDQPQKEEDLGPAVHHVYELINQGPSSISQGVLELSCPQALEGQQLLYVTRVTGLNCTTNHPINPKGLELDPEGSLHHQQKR
T2 sequence (P08648 895-1049 limits assumed): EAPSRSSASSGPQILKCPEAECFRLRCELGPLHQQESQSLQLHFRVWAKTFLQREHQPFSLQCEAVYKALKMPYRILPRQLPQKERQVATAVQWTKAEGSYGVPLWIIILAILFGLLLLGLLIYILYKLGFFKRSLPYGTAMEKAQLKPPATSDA
T2 sequence (P05556 21-798): as the sequence (P05556 21-798) above

| IC50 [1, 3] [nM] | SMILES | also measured |
| --- | --- | --- |
| 133 | CC1(C)SCN(S(=O)(=O)c2ccccc2)C1C(=O)N[C@@H](CNC(=O)NCCc1ccccc1)C(=O)O (some centres unmarked) [Compound 22] |  |
| > 2000 | CC1(C)SCN(S(=O)(=O)c2ccccc2)C1C(=O)N[C@@H](CNC(=O)NCC(c1ccccc1)c1ccccc1)C(=O)O (some centres unmarked) [Compound 20] |  |
| 7 | CC1(C)SCN(S(=O)(=O)c2ccccc2)C1C(=O)N[C@@H](CNC(=S)NCc1ccccc1)C(=O)O (some centres unmarked) [Compound 6] |  |
| 320 | CC1(C)SCN(S(=O)(=O)c2ccccc2)C1C(=O)N[C@@H](CNC(=O)NC(c1ccccc1)c1ccccc1)C(=O)O (some centres unmarked) [Compound 21] |  |
|  | CC1OCN(S(=O)(=O)c2ccccc2)C1C(=O)NC(CNC(=O)NCc1ccccc1)C(=O)O (centres unmarked) [Compound 27, 2-[(3-Benzenesulfonyl-5-methyl-oxazolidine-4-carbonyl)-amino]-3-(3-benzyl-ureido)-propionic acid] | IC50 [1, 4]: 12 nM |
| 28 | CC1(C)SCN(S(=O)(=O)c2ccccc2)C1C(=O)N[C@@H](CNC(=O)NCC1CCCCC1)C(=O)O (some centres unmarked) [Compound 23] |  |
| 15 | CC(C)(C)CNC(=O)NC[C@H](NC(=O)C1N(S(=O)(=O)c2ccccc2)CSC1(C)C)C(=O)O (some centres unmarked) [Compound 19] |  |
| 41 | CC1(C)SCN(S(=O)(=O)c2ccccc2)C1C(=O)N[C@@H](CNC(=O)NCc1ccc(C(F)(F)F)cc1)C(=O)O (some centres unmarked) [Compound 17] |  |
| > 500 | C[C@H](NC(=O)NC[C@H](NC(=O)C1N(S(=O)(=O)c2ccccc2)CSC1(C)C)C(=O)O)c1ccccc1 (some centres unmarked) [Compound 8] |  |
| 6 | Cc1ccc(CNC(=O)NC[C@H](NC(=O)C2N(S(=O)(=O)c3ccccc3)CSC2(C)C)C(=O)O)cc1 (some centres unmarked) [Compound 11] |  |
| 22 | C[C@@H](NC(=O)NC[C@H](NC(=O)C1N(S(=O)(=O)c2ccccc2)CSC1(C)C)C(=O)O)c1ccccc1 (some centres unmarked) [Compound 7] | greater potency of (R) conformation (7) than (S) conformation (8) ([1]; 7 versus 8, platelet adhesion to type I collagen): > 25 fold |
| 8 | Cc1cccc(CNC(=O)NC[C@H](NC(=O)C2N(S(=O)(=O)c3ccccc3)CSC2(C)C)C(=O)O)c1 (some centres unmarked) [Compound 10] | IC50 [2]: > 1000 nM |
| 4 | CC1(C)SCN(S(=O)(=O)c2ccccc2)C1C(=O)N[C@@H](CNC(=O)NCc1ccc(Br)cc1)C(=O)O (some centres unmarked) [Compound 16] |  |
|  | O=C(NCc1ccccc1)NCC(NC(=O)C1CCN1S(=O)(=O)c1ccccc1)C(=O)O (centres unmarked) [Compound 24, 2-[(1-Benzenesulfonyl-azetidine-2-carbonyl)-amino]-3-(3-benzyl-ureido)-propionic acid] | IC50 [1, 4]: 215 nM |
| 6 | CC1(C)SCN(S(=O)(=O)c2ccccc2)C1C(=O)N[C@@H](CNC(=O)NCc1ccc(Cl)cc1)C(=O)O (some centres unmarked) [Compound 15] | IC50 [2]: > 1000 nM |
| 4 | Cc1ccccc1CNC(=O)NC[C@H](NC(=O)C1N(S(=O)(=O)c2ccccc2)CSC1(C)C)C(=O)O (some centres unmarked) [Compound 9] | IC50 [2]: > 1000 nM |
